≈ marks a conversion by molar mass, not a printed value. Where “and” joins values, the source holds several entries; their conditions need not be identical. Equal entries are not always repeated.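 Results reflect a 48-hour exposure of cells in 96-well plates to compound at five concentrations. GI50 is the concentration that inhibits growth by half. At the TGI there is no net growth.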 Calls of active or inactive are those of the source. Cut-off read from the data, not from the text of the source: active = GI50 below about 0.43 µM; inactive = the rest.
Assays:
Test in all cases: growth of human tumour cells (NCI), 48 h
HT29 colon = tested on: HT29 colon
K-562 leukemia = tested on: K-562 leukemia
SW-620 colon = tested on: SW-620 colon
EKVX NSCLC = tested on: EKVX NSCLC
SK-MEL-28 melanoma = tested on: SK-MEL-28 melanoma
KM20L2 colon = tested on: KM20L2 colon
HOP-18 NSCLC = tested on: HOP-18 NSCLC
XF 498 CNS = tested on: XF 498 CNS
MCF7 breast = tested on: MCF7 breast

Compound | TGI (HT29 colon) | TGI (K-562 leukemia) | TGI (SW-620 colon) | TGI (EKVX NSCLC) | TGI (SK-MEL-28 melanoma) | TGI (KM20L2 colon) | TGI (HOP-18 NSCLC) [µM] | TGI (XF 498 CNS) [µM] | TGI (MCF7 breast) | GI50 (HT29 colon) | outcome (XF 498 CNS) | GI50 (K-562 leukemia) | GI50 (SW-620 colon) | GI50 (EKVX NSCLC) [µg/mL] | GI50 (MCF7 breast) [µg/mL] | GI50 (SK-MEL-28 melanoma) [µg/mL] | outcome (KM20L2 colon) | outcome (HOP-18 NSCLC) | GI50 (KM20L2 colon)
CCOC(=O)NC(=O)c1cn(CCSCCOC(=O)NCCCCCCNC(=O)OCCSCCn2cc(C(=O)NC(=O)OCC)c(=O)[nH]c2=O)c(=O)[nH]c1=O | > 100 µM | > 100 µM | > 100 µM | > 100 µM | > 100 µM | > 100 µM | > 100 |  |  |  |  |  |  |  |  |  |  |  | 
COc1cc2c(cc1OC)C(Cc1c3ccccc3cc3ccccc13)N(C)CC2 (stereo not drawn) | 31 µM | 39.3 µM | > 71.5 µM | 96.8 µM | 46.8 µM | 40.5 µM | 50.4 | 38.8 | 33.7 µM |  |  |  |  |  |  |  |  |  | 
NC(N)=Nc1nc2ccccc2[nH]1 | > 150 µg/mL | > 150 µg/mL | > 150 µg/mL | > 150 µg/mL | > 150 µg/mL |  |  |  | 79.4 µg/mL | 51.3 µg/mL | inactive | 27.6 µg/mL | 60.6 µg/mL | 57.4 (≈ 328 µM) | 1.05 (≈ 6.01 µM) | 135 (≈ 769 µM) | inactive | inactive | 
Cc1cc(N=Nc2ccc(N=Nc3c(O)c(S(=O)(=O)O)cc4cc(S(=O)(=O)O)ccc34)cc2C)ccc1N=Nc1ccc2cc(S(=O)(=O)O)cc(S(=O)(=O)O)c2c1 | > 31.6 µM | > 100 µM | > 100 µM | > 100 µM | > 100 µM | > 100 µM | > 100 | > 100 | > 100 µM |  |  |  |  |  |  |  |  |  | 
CC1=C2C(O)C(C(C)C(=O)NC(C)C)CCC2(C)C=CC1=O (stereo not drawn) | > 100 µM | > 100 µM | > 100 µM | > 100 µM | > 100 µM | > 100 µM | > 100 | > 100 | > 100 µM |  |  |  |  |  |  |  |  |  | 
CCNCCCCNCC | > 3750 µM | > 3750 µM | > 3750 µM | > 3750 µM | > 3750 µM | > 3750 µM | > 37.5 | > 3750 | > 3750 µM |  |  |  |  |  |  |  |  |  | 
COC(=O)NN1C(=O)C(=P(c2ccccc2)(c2ccccc2)c2ccccc2)C(C(=O)OC)=C1C | > 100 µM | > 100 µM | > 100 µM | > 100 µM | > 100 µM | > 100 µM | > 100 |  |  |  |  |  |  |  |  |  |  |  | 
COc1cc([C@@H]2c3cc4c(c(O)c3C[C@H]3COC(=O)[C@@H]32)OCO4)cc(OC)c1O | 1.53 µM | > 50.2 µM | > 200 µM | > 92.8 µM | > 200 µM | 0.0279 µM and 0.059 µM |  | 0.702 | > 200 µM | 0.0182 µM |  | 0.00312 µM | 0.00397 µM |  |  |  |  |  | 0.0105 µM and 0.0332 µM
Cn1c(=O)c2nc(N3CCCCC3)cnc2n(C)c1=O | > 100 µM | > 100 µM | > 100 µM | > 100 µM | > 100 µM | > 100 µM |  | > 100 |  |  |  |  |  |  |  |  |  |  | 
O=C(O)CNS(=O)(=O)c1ccc(NC(=O)Nc2ccccc2)cc1 | > 100 µM | > 100 µM | > 100 µM | > 100 µM | > 100 µM | > 100 µM | > 100 | > 100 | > 100 µM |  |  |  |  |  |  |  |  |  | 
